Results taken from US6372740B1, “2-aryl-8-oxodihydropurine derivative, process for the producing the same, medicinal compositions containing the same, and intermediates thereof” (Dainippon Pharmaceutical Co., Ltd., priority 1997, dated 2002).

Experiments:
BZω3 receptor = molecular target: T1, BZω3 receptor (Rattus norvegicus, UniProt P16257); test: BZω3 (peripheral) benzodiazepine receptor binding assay, [3H] 4'-chlorodiazepam (Ro 5-4864); conditions: rat kidney membrane, [3H] Ro 5-4864 0.5 nM, 150 minutes at 0° C.; read-out: ω3 IC50
T1 construct: from tissue; host or cells: rat (Wistar) kidney membrane fraction
Experimental: Experiment 1: Central (ω1,ω2) and Peripheral (ω3) Benzodiazepine Receptor Binding Assays
BZω1 and BZω2 receptor binding assays and the preparation of receptor membrane fractions therefor were carried out according to the method of Stephens, D. N. et al. [cf., J. Pharmacol. Exp. Ther., 253, 334-343 (1990)], and BZω3 receptor binding assay and the preparation of receptor membrane fraction therefor were done according to the method of Schoemaker, H. [cf, J. Pharmacol. Exp. Ther., 225, 61-69 (1983)] each with slight modification.
Receptor membrane fractions for ω1, ω2 and ω3 were prepared from the cerebellum (ω1), spinal cord (ω2) or kidney (ω3) in 7-8 week old male rats of Wistar strain, respectively, by the procedure described below.
After the cerebellum or spinal cord was homogenized with 20 volumes of ice-cold 50 mM Tris-citrate buffer (pH 7.1), the homogenate was centrifuged for 15 minutes at 40,000 g. The pellet obtained was washed 4 times by the same procedure, and frozen and stored for 24 hours at −60° C. The resulting pellet, after being thawed, washed with the buffer and centrifuged, was suspended in the buffer I for the binding assay (50 mM Tris-HCl buffer containing 120 mM NaCl, 5 mM KCl, 2 mM CaCl2 and 1 mM MgCl2; pH 7.4) and the suspension thus obtained (containing 1 g wet tissue/40 ml) was used for the BZω1 and BZω2receptor binding assays. On the other hand, the kidney was homogenized with 20 volumes of the ice-cold buffer II for the binding assay (50 mM Na-K phosphate buffer containing 100 mM NaCl; pH 7.4), and the mixture was filtered through 4 sheets of gauze, and centrifuged for 20 minutes at 40,000 g. The pellet obtained was suspended in the buffer II and the suspension (containing 1 g wet tissue/100 ml) was used for the binding assay as BZω3 receptor membrane source.
[^3H] Flumazenil (Ro 15-1788) (final concentration: 0.3 nM for ω1, and 1 nM for ω2) and flunitrazepam (final concentration: 10 μM) were used for the BZω1 or BZω2 receptor binding assays as the isotope-labeled and unlabeled ligands, respectively. For the BZω3 receptor binding assay, [^3H] 4′-chlorodiazepam (7-chloro-1,3-dihydro-1-methyl-5-(4-chlorophenyl)-2H-1,4-diazepin-2-one) (Ro 5-4864) (final concentration: 0.5 nM) and diazepam (final concentration: 100 μM) were used as the isotope-labeled and unlabeled ligands, respectively. Incubation was performed for 30 minutes at 37° C. in the BZω1 or BZω2 receptor binding assays, and for 150 minutes at 0° C. in the BZω3 receptor binding assay. The BZω1 or BZω2 receptor binding assays were carried out in the presence of bicuculline (final concentration: 100 μM).
The binding assay was performed by the following procedure. After adding each test compound at certain known concentrations, a [^3H] ligand, and the buffer I or II to each test tube, each assay was started by addition of membrane preparation (total volume of 1 ml). After incubation, the assay was terminated by filtration with suction through a Whatman GF/B glass fiber filter using a cell harvester (Brandel, USA). The filters were rapidly washed 3 times with 5 ml of ice-cold 50 mM Tris-HCl buffer (pH 7.7) for ω1 and ω2, or the buffer II for ω3, and transferred to scintillation vials containing 10 ml liquid scintillation cocktail (ACS-II, Amersham, USA). After being allowed to stand for a specific period, retained radioactivity was counted by a liquid scintillation spectrometer. Specific binding of [^3H] ligands was calculated as the difference between amounts of radioactivity bound in the presence and absence of excess unlabeled ligands. The concentration of the test compounds causing 50% inhibition of specific binding of the [3H] ligand (IC50) was determined by probit analysis.

mice (lethality) = test: Acute toxicity; assay type: in vivo, mouse; conditions: male Std-ddY mice, oral 2000 mg/kg, observed for 7 days
Experimental: Experiment 4: Acute Toxicity
Male mice of Std-ddY strain weighing 25-30 g were used in a group of 10 animals for examining on the compound of Example 1. A test compound was suspended in 0.5% tragacanth and administered orally to the mice at a dose of 2000 mg/kg.

[1] = tested on: mice (stay in light compartment); test: Light and dark box test (anti-anxiety effect); assay type: in vivo; conditions: Mus musculus, po, 0.5 h, male Std-ddY mice, 30 minutes before test, Dunnett test 5%, read-out: Anti-anxiety effect MED (minimum effective dose)
Excerpt: Experiment 2: Light and Dark Box Test (Anti-anxiety Effect)
Anti-anxiety effect of test compounds was examined in a box with light and dark compartments according to the method of Crawley, J. and Goodwin, F. K. [cf., Pharmacol. Biochem. Behav., 13, 167-170 (1980)] with slight modification.
Light and dark box test is a useful, simple and handy method for behaviorally and pharmacologically examining anti-anxiety effect of the drugs, by utilizing the habit of rodents such as mice and rats, etc. which prefer to stay in a dark place, and regarding as positive drug effect the increase of the relative stay of the animals in the light compartment which is an uncomfortable place for the animals. A number of drugs such as cholecystokinin B type receptor antagonists and benzodiazepine drugs, show positive effect in this test.
Light and dark box test was carried out using the test box device (35×17×15 cm) which comprises: a light compartment (20×17×15 cm) consisting of transparent acrylic plates and highly illuminated by an incandescent lamp (1,700 lux); a dark compartment (15×17×15 cm) being made of black acrylic plates connected to the light compartment; and at the boundary of compartments, an opening (4.4×5.0 cm) in which mice can go through freely between two compartments.
Male mice of Std-ddY strain weighing 25-30 g were used in a group of 10. Each trial was started by placing a mouse in the center of the light compartment 30 minutes after oral administration of a test compound, and the time spent by the mouse in the light compartment during a 5 minute observation period was measured, and the rate of the stay of mice in the light compartment to the whole time spent in the experiment was calculated (rate of light compartment stay, %).
The anti-anxiety effect of the test compound was represented by the minimum effective dose (MED) at which the increasing rate of the relative stay in the light compartment was regarded as statistically significant (Dunnett test, significance level: 5%). 4.

[2] = tested on: mice (isoniazid-induced clonic convulsion); test: Isoniazid-induced clonic convulsion test (anti-convulsant effect); assay type: in vivo, mouse; conditions: male Std-ddY mice, oral, 30 minutes before isoniazid 200 mg/kg s.c.; dose prolonging onset time by 25%
Excerpt: Experiment 3: Isoniazid-induced Clonic Convulsion Test (Anti-convulsant Effect)
Isoniazid inhibits glutamate decarboxylase that catalyzes GABA biosynthesis, decrease brain GABA levels, and induces clonic convulsion. According to the method of Auta, J. et al. [cf., J. Pharmacol. Exp. Ther., 265, 649-656 (1993)] with slight modification, antagonistic effects of the test compounds on isoniazid-induced clonic convulsion were examined. […] Such drugs are BZ receptor agonists represented by diazepam, neurosteroids such as allopregnanolone, allotetrahydro-deoxycorticosterone (THDOC) and BZω3 receptor agonists, which enhance the synthesis of neurosteroids.
Male mice of Std-ddY strain weighing 22-24 g were used in a group of 6. Thirty minutes after oral administration of the test compounds, mice were injected with isoniazid (200 mg/kg) subcutaneously, and immediately thereafter, the mice were placed individually in plastic observation cages. The onset time of clonic convulsion was measured (cut-off time: 90 minutes). The latency in the control group was about 40 minutes.
Anti-isoniazid effect of the test compounds was expressed by the dose, which prolonged the onset time by 25% compared to that in the vehicle group (ED25). The ED25 value was calculated according to the Probit method.

With `CCN(C(=O)Cn1c(=O)n(C)c2nc(-c3ccccc3)ncc21)c1ccccc1` [Example 1, N-ethyl-8,9-dihydro-9-methyl-8-oxo-2-phenyl-N-phenyl-7H-purin-7-acetamide] the IC50 (BZω3 receptor) was 2 nM, the lethality (mice (lethality)) was “no lethality” and the minimal effective dose [1] was 1 to 3 µg/kg.

In the case of `CN(C(=O)Cn1c(=O)n(C)c2nc(-c3ccccc3)ncc21)c1ccccc1` [Example 2, 8,9-dihydro-9-methyl-N-methyl-8-oxo-2-phenyl-N-phenyl-7H-purin-7-acetamide], the IC50 (BZω3 receptor) is reported as 1.2 nM, the minimal effective dose [1] is reported as 1 to 3 µg/kg and the melting point is reported as 147 to 148 °C.

For `CN(C(=O)Cn1c(=O)n(C)c2nc(-c3ccc(F)cc3)ncc21)c1ccccc1` [Example 5, 8,9-dihydro-2-(4-fluorophenyl)-9-methyl-N-methyl-8-oxo-N-phenyl-7H-purin-7-acetamide], the IC50 (BZω3 receptor) was 1.3 nM, the minimal effective dose [1] was 1 to 3 µg/kg and the melting point was 169 to 170 °C.

Work on `CCN(C(=O)Cn1c(=O)n(C)c2nc(-c3ccc(F)cc3)ncc21)c1ccccc1` [Example 12, N-ethyl-8,9-dihydro-2-(4-fluorophenyl)-9-methyl-8-oxo-N-phenyl-7H-purin-7-acetamide] yielded an IC50 (BZω3 receptor) of 1.5 nM, a minimal effective dose [1] of 10 µg/kg and a melting point of 211 to 212 °C.

In the case of `CN(Cc1ccccc1)C(=O)Cn1c(=O)n(C)c2nc(-c3ccc(F)cc3)ncc21` [Example 50], the IC50 (BZω3 receptor) is reported as 0.79 nM, the minimal effective dose [1] is reported as 100 µg/kg and the melting point is reported as 170 to 171 °C.

In the case of `CCCN(CCC)C(=O)Cn1c(=O)n(C)c2cnc(-c3ccccc3)nc21` [Example 106, 7,8-dihydro-7-methyl-8-oxo-2-phenyl-N,N-dipropyl-9H-purin-9-acetamide], the IC50 (BZω3 receptor) is reported as 1.2 nM, the minimal effective dose [1] is reported as 1 to 3 µg/kg and the “Anti-convulsant effect ED25” value [2] is reported as 100000 µg/kg.

For `CCCN(CCC)C(=O)Cn1c(=O)n(CC)c2cnc(-c3ccccc3)nc21` [Example 107, 7-ethyl-7,8-dihydro-8-oxo-2-phenyl-N,N-dipropyl-9H-purin-9-acetamide], the IC50 (BZω3 receptor) was 0.66 nM, the minimal effective dose [1] was 1 to 3 µg/kg and the melting point was 98 to 99 °C. The “Anti-convulsant effect ED25” value [2] was 33000 µg/kg.

In the case of `CCCN(CCC)C(=O)Cn1c(=O)n(C)c2cnc(-c3ccc(Cl)cc3)nc21` [Example 112], the IC50 (BZω3 receptor) is reported as 0.73 nM, the melting point is reported as 135 to 137 °C and the “Anti-convulsant effect ED25” value [2] is reported as 73600 µg/kg.

Work on `CCCN(CCC)C(=O)Cn1c(=O)n(CC)c2cnc(-c3ccc(Cl)cc3)nc21` [Example 116] yielded an IC50 (BZω3 receptor) of 2.1 nM, a minimal effective dose [1] of 10 µg/kg and a melting point of 158 to 159 °C.

`CN(Cc1ccccc1)C(=O)Cn1c(=O)n(C)c2cnc(-c3ccc(Cl)cc3)nc21` [Example 137, N-benzyl-7,8-dihydro-N-methyl-7-methyl-8-oxo-2-(4-chlorophenyl)-9H-purin-9-acetamide] gave an IC50 (BZω3 receptor) of 1.3 nM, a minimal effective dose [1] of 1 to 3 µg/kg and a melting point of 241 to 242 °C.

`CCN(Cc1ccccc1)C(=O)Cn1c(=O)n(C)c2cnc(-c3ccc(Cl)cc3)nc21` [Example 147, N-benzyl-N-ethyl-7,8-dihydro-7-methyl-8-oxo-2-(4-chlorophenyl)-9H-purin-9-acetamide] showed an IC50 (BZω3 receptor) of 1.1 nM, a minimal effective dose [1] of 1 to 3 µg/kg and a melting point of 172 to 173 °C.

`COc1ccc(N(C)C(=O)Cn2c(=O)n(C)c3cnc(-c4ccccc4)nc32)cc1` [Example 163] showed an IC50 (BZω3 receptor) of 0.73 nM, a minimal effective dose [1] of 100 µg/kg and a melting point of 172 to 174 °C.
